Key:
Type in all cases: physicochemical
[1] = Enantiomeric (chiral) stability of the compound in buffer solutions, chiral HPLC assay
Description: (§1) Stability for N-{4-(2,2-dimethyl-propionyl)-(5R)-5-[(2-ethylamino-ethanesulfonylamino)-methyl]-5-phenyl-4.5-dihydro-[1,3,4]thiadiazol-2-yl}-2,2-dimethyl-propionamide (the compound) is assessed at 0.1 mg/mL in various buffers adjusted from pH 2 through 8 with various pH adjusting agents (e.g. 0.1 and 1 N HCl; 0.1, 1, and 5 N NaOH) and at different storage conditions (e.g. 5° C., 25° C., and 40° C. at 75% relative humidity). Hereinafter, the 40° C. at 75% relative humidity storage condition will be referred to as 40° C. These buffers include 10 mM and 50 mM tartrate (40° C.), 10 mM phosphate (25 and 40° C.), 50 mM phosphate (40° C.), and 10 mM citrate (25 and 40° C. Additional solution stability studies include 10 mM citrate (pH 8; 5° C., 25° C., and 40° C.) and 10 mM NaCl, 10 mM sodium sulfate, 10 mM mesylate, 10 mM tartrate, 10 mM phosphate, and 10 mM citrate (pH 8, 40° C). Lyophilized stability studies for N-{4-(2,2-dimethyl-propionyl)-(5R)-5-[(2-ethylamino-ethanesulfonylamino)-methyl]-5-phenyl-4,5-dihydro-[1,3,4]thiadiazol-2-yl}- 2-dimethyl-propionamide involve solutions containing 10 mM tartrate buffer at pH 3 which are lyophilized and subjected to storage at 5° C., 25° C., and 40 ° C. for 1, 3, and 6 months. Finally, the enantiomeric stability for N-{4-(2,2-dimethyl-propionyl)-(5R)-5-[(2-ethylamino-ethanesulfonylamino-methyl]-5-phenyl-4,5-dihydro-[1,3,4]thiadiazol-2-yl}-2,2-dimethyl-propionamide is assessed when dissolved in various organic solvents and aqueous/solvent mixtures, including methanol, ethanol, acetonitrile, acetone, ethyl acetate, and 50% ethanol/50% water (all at 25° C. and 40° C.) and in 1-octanol (25° C.).
(§2) The enantiomeric stability is measured with a chiral HPLC assay employing polar ionic separation conditions. Those conditions include Column: Chirobiotic T, 150×4.6 mm; Detector UV, 290 nm; Flow: 0.225-0.35 mL/min., adjust to optimize chiral separation; injection: 2 μL-10 μL; Column Temperature: 45° C.; Mobile Phase: 0.01% TEA, 1.0% HOAc, 1.0% water (DIW) in methanol. Enantioselectivity is very sensitive to mobile phase composition, specifically the acid:base ratio. For this reason, the TEA and HOAc additives are accurately measured and then delivered by pipette into the mobile phase while stirring.

[2] = Lyophilized stability study (10 mM tartrate buffer pH 3, lyophilized and stored), chiral conversion
Description: as §1, §2

[3] = Enantiomeric stability when dissolved in organic solvents and aqueous/solvent mixtures
Description: as §1
The enantiomeric stability is measured with a chiral HPLC assay employing polar ionic separation conditions. […] For this reason, the TEA and HOAc additives are accurately measured and then delivered by pipette into the mobile phase while stirring.

Compound: CCNCCS(=O)(=O)NC[C@@]1(c2ccccc2)SC(NC(=O)C(C)(C)C)=NN1C(=O)C(C)(C)C [the compound, N-{4-(2,2-dimethyl-propionyl)-(5R)-5-[(2-ethylamino-ethanesulfonylamino)-methyl]-5-phenyl-4,5-dihydro-[1,3,4]thiadiazol-2-yl}-2,2-dimethyl-propionamide]
- chiral conversion of the compound ([1]; 10 mM citrate buffer, pH 2.1, at least 96 hours, 40° C.): no chiral conversion
- chiral conversion of the compound ([1]; 10 mM citrate buffer, pH 2.1, at least 120 hours, 25° C.): no chiral conversion
- chiral conversion of the compound ([1]; 10 mM citrate buffer, pH 3.3, at least 96 hours, 40° C.): no chiral conversion
- chiral conversion of the compound ([1]; 10 mM citrate buffer, pH 3.3, at least 120 hours, 25° C.): no chiral conversion
- chiral conversion of the compound ([1]; 10 mM citrate buffer, pH 4.2, at least 96 hours, 40° C.): no chiral conversion
- chiral conversion of the compound ([1]; 10 mM citrate buffer, pH 4.2, at least 120 hours, 25° C.): no chiral conversion
- % of the compound remains ([1]; 10 mM citrate buffer, pH 8.4, 24 hours, 25° C.): 95.8%
- % of the compound remains ([1]; 10 mM citrate buffer, pH 8.4, 120 hours, 5° C.): 99.3%
- chiral conversion of the compound ([1]; 10 mM sodium phosphate buffer, pH 2.3, at least 120 hours, 25° C.): no chiral conversion
- chiral conversion of the compound ([1]; 10 mM sodium phosphate buffer, pH 2.3, at least 120 hours, 40° C.): no chiral conversion
- chiral conversion of the compound ([1]; 10 mM sodium phosphate buffer, pH 3.4, at least 120 hours, 25° C.): no chiral conversion
- chiral conversion of the compound ([1]; 10 mM sodium phosphate buffer, pH 3.4, at least 120 hours, 40° C.): no chiral conversion
- chiral conversion of the compound ([1]; 10 mM sodium phosphate buffer, pH 5.4, at least 120 hours, 25° C.): no chiral conversion
- chiral conversion of the compound ([1]; 10 mM sodium phosphate buffer, pH 5.4, at least 120 hours, 40° C.): no chiral conversion
- chiral conversion of the compound ([1]; 10 mM tartrate buffer, pH 2.1, at least 96 hours, 40° C., 0.1 mg/mL): no chiral conversion
- chiral conversion of the compound ([1]; 10 mM tartrate buffer, pH 3.1, at least 96 hours, 40° C., 0.1 mg/mL): no chiral conversion
- chiral conversion of the compound ([1]; 10 mM tartrate buffer, pH 4,1, at least 96 hours, 40° C., 0.1 mg/mL): no chiral conversion
- % of the compound remains ([1]; 10 mM tartrate buffer, pH 6.2, 96 hours, 40° C.): 97.5%
- % of the compound remains ([1]; 10 mM tartrate buffer, pH 8.7, 96 hours, 40° C.): 60.3%
- chiral conversion of the compound ([1]; 50 mM phosphate buffer, pH 2.2, at least 96 hours, 40° C.): no chiral conversion
- chiral conversion of the compound ([1]; 50 mM phosphate buffer, pH 3.3, at least 96 hours, 40° C.): no chiral conversion
- chiral conversion of the compound ([1]; 50 mM phosphate buffer, pH 5.0, at least 96 hours, 40° C.): no chiral conversion
- chiral conversion of the compound ([1]; 50 mM tartrate buffer, pH 2.0, at least 120 hours, 40° C., 0.1 mg/mL): no chiral conversion
- chiral conversion of the compound ([1]; 50 mM tartrate buffer, pH 2.9, at least 120 hours, 40° C., 0.1 mg/mL): no chiral conversion
- chiral conversion of the compound ([1]; 50 mM tartrate buffer, pH 3.9, at least 120 hours, 40° C., 0.1 mg/mL): no chiral conversion
- % of the compound remains ([1]; citrate buffer, pH 6.2, 96 hours, 40° C.): 98.2%
- % of the compound remains ([1]; citrate buffer, pH 6.2, 120 hours, 25° C.): 99.9%
- chiral conversion of the compound ([2]; lyophilized formulation pH 3.0, 1 month, 5° C.): no chiral conversion
- chiral conversion of the compound ([2]; lyophilized formulation pH 3.0, 1 month, 25° C.): no chiral conversion
- chiral conversion of the compound ([2]; lyophilized formulation pH 3.0, 1 month, 40° C. (75% relative humidity)): no chiral conversion
- chiral conversion of the compound ([2]; lyophilized formulation pH 3.0, 3 months, 5° C.): no chiral conversion
- chiral conversion of the compound ([2]; lyophilized formulation pH 3.0, 3 months, 25° C.): no chiral conversion
- chiral conversion of the compound ([2]; lyophilized formulation pH 3.0, 3 months, 40° C. (75% relative humidity)): no chiral conversion
- chiral conversion of the compound ([2]; lyophilized formulation pH 3.0, 6 months, 5° C.): no chiral conversion
- chiral conversion of the compound ([2]; lyophilized formulation pH 3.0, 6 months, 25° C.): no chiral conversion
- chiral conversion of the compound ([2]; lyophilized formulation pH 3.0, 6 months, 40° C. (75% relative humidity)): no chiral conversion
- stability / conversion to the S enantiomeric form, compared with the other solvents tested ([3]; in 50% ethanol/50% water (25° C. and 40° C.)): less stable
- stability / conversion to the S enantiomeric form, compared with the other solvents tested ([3]; in acetonitrile (25° C. and 40° C.)): less stable
- stability / conversion to the S enantiomeric form, compared with the other solvents tested ([3]; in ethyl acetate (25° C. and 40° C.)): less stable

Reference: patent US8222284B2, “Stable formulations of thiadiazole derivative” (Eli Lilly and Company, priority 2007, dated 2012)
